Measured values published in US4537769A (priority 1982, dated 1985).
Where two headings read alike, the source gives them in different places.

Test system: H7N1 neuraminidase
Assay type: biochemical, influenza virus
Details: for Units of Activity: 37° C. for 24 hours; for Neuraminidase Activity-24 Hrs Post 37° C.: H7N1 vaccine
[1] = H7N1 vaccine with additive at .03%
[2] = H7N1 vaccine with additive at .07%
[3] = H7N1 vaccine with additive at .02%
[4] = H7N1 vaccine with additive at .05%
[5] = H7N1 vaccine with additive at .04%

Compound: C[C@H](N)C(=O)O [Alanine]
- Units of Activity [1]: 9.0 Nanomoles of N--acetyl neurami

Compound: N[C@@H](CC(=O)O)C(=O)O [Aspartic Acid]
- Units of Activity [2]: 5.9 Nanomoles of N--acetyl neurami

Compound: N[C@@H](CCC(=O)O)C(=O)O [Glutamic Acid]
- Units of Activity (H7N1 vaccine with additive at .18%): 4.5 Nanomoles of N--acetyl neurami

Compound: NCC(=O)O [Glycine]
- Units of Activity [3]: 8.5 Nanomoles of N--acetyl neurami

Compound: N[C@@H](Cc1c[nH]cn1)C(=O)O [Histidine]
- Units of Activity [3]: 13.1 Nanomoles of N--acetyl neurami
- Neuraminidase Activity-24 Hrs Post 37° C. (No. 1: Histidine 0.02 % w/v): 13.0
- Neuraminidase Activity-24 Hrs Post 37° C. (No. 2: Histidine 0.05 % w/v): 17.3
- Neuraminidase Activity-24 Hrs Post 37° C. (No. 3: Histidine 0.09 % w/v): 23.8
- Neuraminidase Activity-24 Hrs Post 37° C. (No. 4: Histidine 0.13 % w/v): 27.9

Compound: CC[C@H](C)[C@H](N)C(=O)O [Isoleucine]
- Units of Activity [4]: 5.2 Nanomoles of N--acetyl neurami

Compound: CC(C)C[C@H](N)C(=O)O [Leucine]
- Units of Activity (H7N1 vaccine with additive at .08%): 7.3 Nanomoles of N--acetyl neurami

Compound: NCCCC[C@H](N)C(=O)O [Lysine]
- Units of Activity [2]: 8.5 Nanomoles of N--acetyl neurami

Compound: CSCC[C@H](N)C(=O)O [Methionine]
- Units of Activity [3]: 8.9 Nanomoles of N--acetyl neurami

Compound: N[C@@H](Cc1ccccc1)C(=O)O [Phenylalanine]
- Units of Activity [5]: 9.1 Nanomoles of N--acetyl neurami

Compound: O=C(O)[C@@H]1CCCN1 [Proline]
- Units of Activity (H7N1 vaccine with additive at .09%): 12.3 Nanomoles of N--acetyl neurami
- Neuraminidase Activity-24 Hrs Post 37° C. (No. 5: Proline 0.09 % w/v): 12.3
- Neuraminidase Activity-24 Hrs Post 37° C. (No. 6: Proline 0.18 % w/v): 17.5
- Neuraminidase Activity-24 Hrs Post 37° C. (No. 7: Proline 0.36 % w/v): 26.2
- Neuraminidase Activity-24 Hrs Post 37° C. (No. 8: Proline 0.54 % w/v): 30.7

Compound: N[C@@H](CO)C(=O)O [Serine]
- Units of Activity [4]: 9.1 Nanomoles of N--acetyl neurami

Compound: C[C@@H](O)[C@H](N)C(=O)O [Threonine]
- Units of Activity [5]: 6.7 Nanomoles of N--acetyl neurami

Compound: N[C@@H](Cc1c[nH]c2ccccc12)C(=O)O [Tryptophan]
- Units of Activity (H7N1 vaccine with additive at .01%): 10.4 Nanomoles of N--acetyl neurami

Compound: N[C@@H](Cc1ccc(O)cc1)C(=O)O [Tyrosine]
- Units of Activity [1]: 4.4 Nanomoles of N--acetyl neurami

Compound: CC(C)[C@H](N)C(=O)O [Valine]
- Units of Activity (H7N1 vaccine with additive at .06%): 6.7 Nanomoles of N--acetyl neurami
